In paper PMC10844532, “The in vivo study on antioxidant activity of wendan decoction in treating hyperlipidemia: a pharmacokinetic-pharmacodynamic (PK-PD) model” (Frontiers in Pharmacology, 2024):
Read-outs that look alike come from different tables or passages of the source.

Legend:
[1] = Plasma pharmacokinetics of 10 WDD components after gavage of WDD (LC-MS/MS, Phoenix NCA and compartment model); type: in vivo, SD rats; parameters: Tmax: unit: h; settings: for AUC(0-t) / Cmax / half-life / Tmax / t1/2: hyperlipidemia rat plasma, non-compartment, n = 6; for Model (optimal PK compartment model): chosen by AIC, Phoenix Model module, rats given WDD
Method: LPO values of all the rats were assessed prior to therapy, and utilized as the baseline. […] Thermo Scientific Hypersil C18 analytical column (particle size: 1.9 µm, length: 100 mm, and diameter: 2.1 mm) was employed. Column operational conditions were like so, column temperature: 30°C, autosampler temperature: 4°C, whereas the flow rate: 0.3 mL/min. Injection volume: 3 μL, and mobile phase: aqueous solution containing 0.1% formic acid aqueous solution (A) and acetonitrile (B). […] Electrospray ion source (ESI) was used for mass spectrometry detection and analysis, both in positive and negative ion patterns. Nitrogen was kept as both of the auxiliary and sheath gas. The capillary temperature was 345°C, the atomizer temperature was 350°C, and the electrospray voltage was 3800 V. The mass spectrometry data for the 10 compounds and the internal standard (IS) are shown in Table 1. After accurately measuring 100 μL of plasma, 10 μL of the QC solution or the IS solution was supplemented, and the blend was vortexed for 30 s. Afterward, 300 μL of acetonitrile (as protein precipitant) was added, vortexed for 1 min, and then centrifuged (10 min at 12000 r/min). Finally, the supernatant was taken and stored for testing. […] The dose, plasma concentration and time after administration were imported into the NCA (Noncompartmental Analysis) module of Phoenix 8.1 to obtain the pharmacokinetic parameters. The Phoenix Model module of Phoenix software was used to establish the atrioventricular model of the drug. Akaike Information Criterion (AIC) rules were used to calculate the optimal PK model.

[2] = test system: HDL; parameters: method as in Eu et al., 2010; settings: ref Eu et al., 2010; cited from earlier work
[3] = test system: hyperlipidemia hamsters; parameters: method as in Shi et al., 2023; settings: compared with the control group ref Shi et al., 2023; cited from earlier work
[4] = test system: experimental hyperlipidemia rat models; parameters: method as in Kumar et al., 2020; settings: experimental hyperlipidemia rat models ref Kumar et al., 2020; cited from earlier work
[5] = test system: hyperlipidemia mice; parameters: method as in Yu et al., 2022; settings: hyperlipidemia mice ref Yu et al., 2022; cited from earlier work
[6] = test system: plasma lipids; parameters: method as in Sahebkar, 2017; settings: randomized controlled trials ref Sahebkar, 2017, cited from earlier work
[7] = Sprague-Dawley, po, HTG: WDD 6.6 g/100 g by gavage
[8] = Sprague-Dawley, po, LTG: WDD 2.2 g/100 g by gavage
[9] = Sprague-Dawley, rat, plasma, po, 2.2 g/100 g, LTG: WDD 2.2 g/100 g by gavage
[10] = Sprague-Dawley, rat, plasma, po, 2.2 g/100 g, LTG: WDD 2.2 g/100 g by gavage, read-out: Tmax
[11] = Sprague-Dawley, rat, plasma, po, 6.6 g/100 g, HTG: WDD 6.6 g/100 g by gavage
[12] = Sprague-Dawley, rat, plasma, po, 6.6 g/100 g, HTG: WDD 6.6 g/100 g by gavage, read-out: Tmax

Row | Compound | AUC(0-t) [1, 7] | Cmax [1, 7] | AUC(0-t) [1, 8] | Cmax [1, 8] | half-life [1, 9] | Tmax [1, 10] | half-life [1, 11] | Tmax [1, 12] | Model (optimal PK compartment model) [1] | also measured
1 | CC1(C)[C@@H](O)CC[C@]2(C)[C@H]3C(=O)C=C4[C@@H]5C[C@@](C)(C(=O)O)CC[C@]5(C)CC[C@@]4(C)[C@]3(C)CC[C@@H]12 [Glycyrrhetinic acid] | 10200 ± 298 ng·h/mL | 3280 ± 475 ng/mL | 8180 ± 500 ng·h/mL | 2940 ± 220 ng/mL | 2.3 ± 0.16 h | 0.75 h | 6.02 ± 0.92 h | 0.54 ± 0.21 h |  | bioavailability (from largest AUC in rat plasma) ([1]; both doses of WDD): good bioavailability
2 | CC1(C)[C@@H](O[C@H]2O[C@H](C(=O)O)[C@@H](O)[C@H](O)[C@H]2O[C@@H]2O[C@H](C(=O)O)[C@@H](O)[C@H](O)[C@H]2O)CC[C@]2(C)[C@H]3C(=O)C=C4[C@@H]5C[C@@](C)(C(=O)O)CC[C@]5(C)CC[C@@]4(C)[C@]3(C)CC[C@@H]12 [Glycyrrhizic acid] | 128 ± 5.67 ng·h/mL | 45.1 ± 2.3 ng/mL | 104 ± 5.97 ng·h/mL | 20.6 ± 2.16 ng/mL | 10.8 ± 3.88 h | 1.5 h | 15.5 ± 7.44 h | 0.25 h | One-Compartment Model | HDL [2]: can increase HDL
3 | COc1ccc([C@@H]2CC(=O)c3c(O)cc(O)cc3O2)cc1O [Hesperetin] | 3890 ± 147 ng·h/mL | 607 ± 130 ng/mL | 1030 ± 23.8 ng·h/mL | 223 ± 8.19 ng/mL | 5.88 ± 3.39 h | 1.42 ± 0.92 h | 3.21 h |  | One-Compartment Model | body weight, obesity index, serum TC, TG, liver TC, TG and free fatty acid levels [3]: significantly decreased; Tmax ([1]; HTG: WDD 6.6 g/100 g by gavage): 0.67 ± 0.17 h; t1/2 ([1]; HTG: WDD 6.6 g/100 g by gavage): 6.24 ± 0.36 h; Tmax ([1]; HTG: WDD 6.6 g/100 g by gavage, listed as hesperetin): 0.25 h
4 | COc1ccc([C@@H]2CC(=O)c3c(O)cc(O[C@@H]4O[C@H](CO[C@@H]5O[C@@H](C)[C@H](O)[C@@H](O)[C@H]5O)[C@@H](O)[C@H](O)[C@H]4O)cc3O2)cc1O [Hesperidin] | 439 ± 13.3 ng·h/mL | 194 ± 24.3 ng/mL | 172 ± 3.26 ng·h/mL | 34.6 ± 3.22 ng/mL | 12.1 ± 5.52 h | 0.67 ± 0.42 h | 4.19 ± 0.17 h | 0.75 h | One-Compartment Model | altered redox homeostasis [4]: can reduce altered redox homeostasis
5 | O=C(/C=C/c1ccc(O)cc1)c1ccc(O)cc1O [Isoliquiritigenin] | 54.9 ± 2.07 ng·h/mL | 17.8 ± 3.31 ng/mL | 48.5 ± 0.82 ng·h/mL | 16.2 ± 2.35 ng/mL | 27.4 ± 4.66 h | 0.5 h | 14.6 ± 9 h |  |  | Tmax ([1]; HTG: WDD 6.6 g/100 g by gavage): 0.79 ± 0.21 h; Tmax ([1]; HTG: WDD 6.6 g/100 g by gavage, listed as isoliquiritigenin): 0.25 h
6 | O=C1C[C@@H](c2ccc(O)cc2)Oc2cc(O)cc(O)c21 [Naringenin] | 595 ± 15.4 ng·h/mL | 139 ± 10.6 ng/mL | 587 ± 14.3 ng·h/mL | 110 ± 6.8 ng/mL | 12.5 ± 4.08 h | 0.75 h | 11.7 ± 1.94 h | 0.75 h | One-Compartment Model | 
7 | C[C@@H]1O[C@@H](O[C@H]2[C@H](Oc3cc(O)c4c(c3)O[C@H](c3ccc(O)cc3)CC4=O)O[C@H](CO)[C@@H](O)[C@@H]2O)[C@H](O)[C@H](O)[C@H]1O [Naringin] | 713 ± 46.4 ng·h/mL | 575 ± 17.6 ng/mL | 210 ± 12.5 ng·h/mL | 36.8 ± 4.99 ng/mL | 6.13 ± 0.94 h | 0.54 ± 0.21 h | 5 ± 1.27 h | 0.25 h | Two-Compartment Model | effect on reducing lipids and protecting liver [5]: strong effect on reducing lipids and protecting liver
8 | O=c1c(O)c(-c2ccc(O)c(O)c2)oc2cc(O)cc(O)c12 [Quercetin] | 370 ± 14.7 ng·h/mL | 115 ± 4.83 ng/mL | 212 ± 9.39 ng·h/mL | 98.4 ± 8.03 ng/mL | 31.1 ± 41.4 h |  |  | 0.75 h | Two-Compartment Model | triglycerides ([6]; doses above 50 mg/day): significant reduction; effect on plasma lipids ([6]; supplementation): does not have any clinically relevant effect; t1/2 ([1]; HTG: WDD 6.6 g/100 g by gavage): 7.75 ± 12.99 h; Tmax ([1]; LTG: WDD 2.2 g/100 g by gavage): 1.00 ± 0.00 h
9 | COc1ccc(-c2cc(=O)c3c(OC)c(OC)c(OC)c(OC)c3o2)cc1 [Tangeretin] | 22.4 ± 0.89 ng·h/mL | 25.9 ± 2.98 ng/mL | 10.8 ± 0.32 ng·h/mL | 6.8 ± 0.46 ng/mL | 8.83 ± 4.57 h | 0.5 h | 3.21 ± 0.89 h | 0.38 ± 0.13 h | Two-Compartment Model | 
10 | C[n+]1cccc(C(=O)[O-])c1 [Trigonelline] | 6010 ± 96.4 ng·h/mL | 537 ± 7.69 ng/mL | 3560 ± 300 ng·h/mL | 388 ± 25.8 ng/mL | 12.2 ± 1.65 h | 1.5 h | 11.8 ± 1.81 h | 2.67 ± 0.33 h | Two-Compartment Model | 
